The text below walks through data of US12351877B2, “Systems and methods for determining a treatment course of action” (Arizona Board of Regents on Behalf of the University of …, priority 2018, dated 2025).

One assay deals with MCF7 cells. In words: Live-cell TIRFM of SCABs before and after inhibiting contractility. It counts as cell-based, human. Conditions: 25 uM ROCK inhibitor. The text has this: (§1) The relationship between cortical contractility and membrane motility dynamics was further examined. Using live-cell Total Internal Reflection Fluorescence Microscopy (TIRFM), SCABs at the leading edge of MCF7 and T47D cells were imaged before and after inhibiting contractility using the ROCK inhibitor, Y-27632; the actin cytoskeleton was labeled with iRFP-Lifeact, and SCABs with MLC-mRuby2. […] In addition, the existence of SCABs, their contractile nature, and their suppressive effects were validated in two types of epithelial cells: MDCK canine kidney epithelial cells, and Caco-2 human intestinal epithelial cells (FIGS. 3c and 3d). […] ER is potentially enriching for SCABs by inducing the expression of actin regulators that promote SCAB formation.

In another assay the test system is T47D cells. Described as above. The format is cell-based, human. Conditions: 25 uM ROCK inhibitor.
Text: as §1

Assay [1] deals with Caco-2 human intestinal epithelial cells. In words: Leading edge kymography before and after dissolving SCABs. The format is cell-based. The following applies: 25 μM ROCK inhibitor, dissolution of SCABs.
Text: as §1

Assay [2] has as its system MDCK canine kidney epithelial cells. The assay is described as above. The following applies: 25 μM ROCK inhibitor, dissolution of SCABs. It counts as cell-based.
Text: as §1

Molecules are shown by their SMILES.

Regarding `C[C@@H](N)[C@H]1CC[C@H](C(=O)Nc2ccncc2)CC1` [Y-27632], the SCABs entry with MCF7 cells and in the assay on T47D cells was “dissolution of SCABs” each time. The “MLC at the leading edge” value with MCF7 cells (MLC-mRuby2) and with T47D cells (MLC-mRuby2) was “loss of MLC” each time. The protrusive activity entry in the assay with MCF7 cells (iRFP-Lifeact) and in the assay with T47D cells (iRFP-Lifeact) was “rapid increase” in each case. Moreover, the “motility dynamics of the leading edge” value in assay [1] is on record as “dramatically increased”; in assay [1] (listed as ROCK inhibitor) it was “increased”; in assay [2], “dramatically increased”; in assay [2] (listed as ROCK inhibitor) it was “increased”.
